Measured values as given in a melting point compilation (Tetko et al.; mined from patent text by program, amines drawn as free bases though some values may be those of a salt).

Row | SMILES | melting point
1 | Cc1cc(C(=O)c2ccc(C(=O)c3cc(C)c(OCC4CO4)c(C)c3)cc2)cc(C)c1OCC1CO1 (centres undefined) | 164 to 170 °C
2 | CC(OC(=O)c1ccc(C(=O)O)cc1)c1ccc2c(c1)C(C)(C)CCC2(C)C (single isomer, unassigned; (-)) | 138 °C
3 | Cc1ccnc(C(=O)c2[nH]c3ccc(C(F)(F)F)cc3c2CC(=O)O)c1 | 218 to 225 °C
4 | COc1ccc(-c2cc(F)c3c(Cl)c(O)ccc3c2)cc1 | 120 to 124 °C
5 | CC(C)(C)c1ccccc1N1CCN(C(=O)c2nc[nH]n2)CC1 | 295 °C
6 | CC1(c2ccc(N)cc2)C(=O)Nc2cc(Cl)ccc2C1=O (centres undefined) | 155 to 156 °C
7 | O=Cc1c(OCc2ccccc2)ccc2ccccc12 | 120 to 121 °C
8 | CC(=O)C(=O)N[C@H](CO[N+](=O)[O-])c1ccccc1 | 76 to 77 °C
9 | CCCCS(=O)(=O)c1ccc2nn(-c3cc(C(C)(C)CC(C)(C)C)cc(C(C)(C)c4ccccc4)c3O)nc2c1 | 118 °C
10 | CC12CCC(=O)C=C1CCC1C2=CCC2(C)C1CCC2(O)C(=O)CCl (centres undefined) | 227 to 228 °C
11 | Cc1c(-c2ccncc2)sc(-c2ccncc2)c1CF | 148 °C
12 | CC1=CC(c2ccccc2Cl)C(C(=O)OC(C)C)=C(N)N1 (centres undefined) | 161 °C
13 | Cc1cnn(-c2cc(N)c(Cl)cc2Cl)c(=O)c1Br | 211 °C
14 | CCOC(=O)c1cc(C#N)c(Cl)cc1OC | 102 to 103 °C
15 | CSC(Oc1cc(Cl)cc(Cl)c1)C(=O)NC(C)(C)C#CCCCC#N (centres undefined) | 113 to 114 °C
16 | Cn1ncnc1-c1oc2cccc(CCc3ccc(F)cc3)c2c(=O)c1O | 192 to 193 °C
17 | Cc1cc(Cl)ccc1OCC(=O)Nc1ccc(S(N)(=O)=O)cc1 | 218 to 220 °C
18 | COc1cc(Nc2c(C#N)cnc3cc(OCc4ccccc4)c(OC)cc23)c(Cl)cc1Cl | 198 to 200 °C
19 | Cn1c(=O)n(C(N)=O)c2ccccc21 | > 250 °C
20 | Cc1ccc(C(O)(Cn2ccnc2)C(C)(C)C)cc1 (centres undefined) | 135 to 137 °C
21 | CCc1ccnc(C(=O)c2[nH]c3cc(Cl)ccc3c2CC(=O)O)c1F | 193 to 194 °C

Row | SMILES | melting point
22 | O=C1C=CC=C2C=CC=C12 | 70 to 71 °C
23 | O=C(O)c1cc(F)c(F)cc1Nc1ccnn1-c1ccccn1 | 242 to 245 °C
24 | Cn1nnnc1S(=O)(=O)Cc1ccccc1 | 122 to 125 °C
25 | O=C(Nc1ccc(-n2nccn2)c(F)c1)OCc1ccccc1 | 99.5 to 101 °C
26 | O=C(Cl)C(=O)c1cn(Cc2ccc(Cl)cc2)c2ccccc12 | 151 to 153 °C
27 | C#CCNC(=O)c1cccc(-c2cccc(OCCc3ccc(OC)c(OC)c3)n2)c1 | 142 to 143 °C
28 | Cc1ccc(OCC(=O)c2cc(C(C)C)c(O)c(C(C)C)c2)cc1 | 124 to 125 °C
29 | COC(=O)c1c(F)cc(OCCNC(=O)C2Cc3ccccc3N2S(=O)(=O)c2ccc(-c3ccc(F)cc3Cl)cc2)cc1F (centres undefined) | 68 to 74 °C
30 | CC1(C)CCC(C)(C)c2cc3[nH]c(SCc4ccccn4)nc3cc21 | 199 to 200 °C
31 | CCCCC(CC)C(c1ccc(O)cc1)c1ccc(O)cc1 (centres undefined) | 87 °C
32 | CCOC(=O)c1ccc(C(F)(F)F)c(N)c1 | 38 to 39 °C
33 | N#CSc1ccc(-c2nc3ccc(N)c(SC#N)c3nc2-c2ccco2)o1 | 185 to 187 °C
34 | C=CCN1CCN(C(=O)Cn2sc3ccccc3c2=O)CC1 | 119 to 120 °C
35 | C[C@@H](n1cnc2cc(-c3ccc(C=NNO)cc3)sc2c1=O)[C@](O)(Cn1cncn1)c1ccc(F)cc1F | 246 to 247 °C
36 | NCc1ccc(CNc2ncc3ncnc(Nc4ccc(F)c(Cl)c4)c3n2)cc1 | 211 to 213 °C
37 | C=CCc1cc(CCC(=O)OCC)ccc1C#CC1(O)CN2CCC1CC2 (centres undefined) | 55 to 56 °C
38 | COc1ccc(-c2cc3ccccc3[nH]2)c(O)c1 | 195 °C
39 | COCCOc1ccc(CCCOC(=O)NS(=O)(=O)NCCOC(C)C)c(Oc2ncc(Cl)cc2Cl)c1 | 87.5 to 88.4 °C
40 | CC(=O)OCC(C)(CC(C)(C)C)C(=O)O (centres undefined) | 89.5 to 90.5 °C
41 | O=S1(=O)N(CCCCBr)c2ccccc2N1c1ccc(Cl)cc1 | 65 to 68 °C
42 | O=S(=O)(On1nnc2ccccc21)c1ccc(Cl)cc1 | 94 to 95 °C

Row | SMILES | melting point
43 | CC(=NC#N)N[C@@H]1c2cc(C#N)ccc2OC(C)(C)[C@H]1OS(C)(=O)=O (relative stereo) | 202 to 204 °C
44 | Nc1sc2c(c1C(=O)c1cccs1)CCC2 | 133 to 134 °C
45 | COc1ccc(-c2nc3cnccc3[nH]2)c(OCC#N)c1 | 198 °C
46 | O=C(O)C(=O)Cc1ccc(-c2ccccc2)cc1 | 215 to 218 °C
47 | CCOC(=O)c1cc2c3cc(Br)ccc3ncn2c1 | 183 to 185 °C
48 | COc1ccc(OC)c(-c2cccc(-n3cnc(-c4nc(C)no4)c3)c2)c1 | 127 to 129 °C
49 | CN(CCCNc1ncc(Cc2ccc(Cl)c(Cl)c2)c(=O)[nH]1)c1ccccn1 | 86 to 92 °C
50 | CCOC(Cc1ccccc1)=C1SC(=S)N(c2ccccc2)C1=O | 119 to 121 °C
51 | CCOC(=O)c1cn(C2CC2)c2c(Cl)c(F)c(Cl)cc2c1=O | 215 to 217 °C
52 | Nc1nc(-c2ccccc2)c(C(O)CO)c2ncnn12 (centres undefined) | 199 to 200 °C
53 | CC(Cc1ccc(OC(C)C)cc1)NCC(O)c1cccc(Cl)c1 (centres undefined) | 58 to 61 °C
54 | O=C(NS(=O)(=O)c1c(F)cccc1F)N1CCC=N1 | 183 °C
55 | O=C(O)CCN1CCCCC1=O | 105 to 110 °C
56 | O=CNc1nc(C(=NOC2CCCCC2)C(=O)O)cs1 | > 230 °C
57 | NC(=O)NCc1c[nH]c(=S)n1[C@H]1CCc2c(F)cc(F)cc2C1 | 258 to 260 °C
58 | COCCOc1c(C(=O)CC(=O)C(=O)O)ccc(Cc2ccccc2)c1OC | 83 to 85 °C
59 | CCN(C(=O)c1cc(Cl)c(NC(=O)C(F)(F)F)cc1OC)C1CCN(Cc2ccccc2)CC1 | 198 to 200 °C
60 | Cn1c(CNc2ccc(Oc3cccc(C(F)(F)F)c3)cc2)nc([N+](=O)[O-])c1C#N | 124 to 126 °C
61 | O=[N+]([O-])c1cccc2c(Br)cc3nc(O)c(O)nc3c12 | > 300 °C
62 | Cc1ccc2c(c1)C(O)(C1=CCN(C)CC1)CC2c1ccc(F)cc1 (centres undefined) | 176 to 178 °C
63 | OC1CSC(Oc2cc(-c3ccnc(F)c3)ccc2Cl)C(O)C1O (centres undefined) | 162 °C

The remaining lines, values ahead:

Row | melting point | SMILES
64 | 124 to 126 °C | CCOC(=O)C=Cc1cc(OCc2ccccc2)ccc1-c1ccc(-c2cccc(C)c2)c(C(F)F)c1
65 | 210 °C | N#Cc1ccc(-c2ccc(O)cn2)cc1
66 | 70 °C | NC(=S)Cc1cccc(Oc2ccccc2)c1O
67 | 164 to 165 °C | CCOC(=O)C(=CC=C(C)C=CC=C(C)C=CC1=C(C)CCCC1(C)C)CC
68 | 66 to 67 °C | CC(C)S(=O)(=O)N1CCC2(CC1)OCCO2
69 | 175 to 176 °C | CC(C)N(CCCC1CCN(CCNC(=O)N2c3cc(Cl)ccc3C(=O)Nc3cccnc32)CC1)C(C)C
70 | 97 to 99 °C | O=C(O)C(=O)c1ccc(OCC#Cc2ccccc2)cc1
71 | 83 to 85 °C | CC(=O)NC1CCN(Cc2ccccc2)C1 (centres undefined)
72 | 203 to 206 °C | COc1nc2cc(Cl)c(Cl)c(N(CC(=O)O)S(C)(=O)=O)c2nc1OC
73 | 100 to 102 °C | CCOC(=O)CC(c1ccccc1)c1ccc(N2CCN(CCC3CCN(C(=O)OC(C)(C)C)CC3)C2=O)cc1 (centres undefined)
74 | 186 to 189 °C | CC(=O)Nc1ccc(C(=O)N2CC3CNCC(C3)C2)cc1
75 | 108 to 109 °C | O=C=Nc1cc(OC(=O)Oc2cc(N=C=O)c(F)cc2Cl)c(Cl)cc1F
76 | 163 to 165 °C | OC(c1ccccc1)(c1ccc(Cl)cc1)c1ncc[nH]1 (centres undefined)
77 | 214 to 215 °C | CN1CCC(Sc2ccc3[nH]c(=O)[nH]c3c2)CC1
78 | 165 to 167 °C | COc1c(Cl)ccc(-c2nc(N)c(C(C)OC)c(C(=O)O)n2)c1F (centres undefined)
79 | 177 to 179 °C | COc1c(Cl)cc(F)cc1C1OC(=O)NC1=O (centres undefined)
80 | 153 to 154 °C | FC(F)(F)c1ccc(CN2CCNc3ncc(I)cc32)o1
81 | 150 to 152 °C | CCn1nc(C(F)(F)F)c(C)c1O
82 | 154 °C | CC(NC(=O)C(C)(Cc1ccccc1)NC(=O)OC(c1ccc(F)cc1)C(C)C)c1ccccc1 (centres undefined)
83 | 207 to 208 °C | O=c1[nH]c(N2CCN(CCO)CC2)cc2c(F)cccc12
84 | 83 to 86 °C | CCCCCCCCCCCCc1cc2ccc(C(=O)OCC)cc2[nH]1

Row | melting point | SMILES
85 | 245 to 247 °C | CC1CCCCC1C(=O)Nc1ccc(-c2ncc(-c3ccc(NC(=O)c4cccnc4)cc3)[nH]2)cc1 (centres undefined)
86 | 210 °C | CCC(CC)Nc1nnc(-c2ccccc2)c2ccccc12
87 | 113 to 116 °C | O=C(CCOc1cccc(-c2ccccc2)c1)NO
88 | 95 to 96 °C | CCCn1ccnc1C(=O)Cc1ccc([N+](=O)[O-])cc1
89 | 118 to 119 °C | CCC(=O)Nc1c(C(O)(C(F)(F)F)C(F)(F)F)ccc2ccccc12
90 | 106 to 107 °C | C=CCOc1ccc(COc2ccc(CC(=O)O)cc2Cl)cc1
91 | 124 to 127 °C | CC(=O)NC1(c2ccc(CCl)cc2)CC1
92 | > 250 °C | COc1cc2ncc(C#N)c(Nc3cc(Cl)ccc3O)c2cc1OC
93 | 76 to 78 °C | COCCN1CC(c2ccccc2)NC1=S (centres undefined)
94 | 262 to 264 °C | CC(C)c1ccc(-c2nccc(-c3ccc(C(=O)O)cc3)n2)cc1
95 | 155 °C | CN1CCC(=C(c2ccn(C)c2)c2ncc[nH]2)CC1
96 | 155 to 157 °C | COC(=O)C1=CN(c2ccc(O)cc2)C(C2CC=CCC2)CC1=O (centres undefined)
97 | 74 to 75 °C | CCOC(=O)CC(=O)N=C(SC)N(C)N=Cc1ccccc1
98 | 147 to 148 °C | CN1C(=O)CC[C@]2(C)c3ccc(-c4cccc(F)c4F)cc3CC[C@@H]12
99 | 164 to 168 °C | O=C(O)c1cc(Cl)c(Cl)nc1Cl
100 | 89 °C | CC1CCN(c2ccc(N)cc2C(O)c2ccc(Cl)cc2)CC1 (centres undefined)
101 | 120 to 122 °C | COc1ccc(COC/C(=C/c2ccc(C(=O)O)cc2)Cn2ccnc2)cc1
102 | 182 to 183 °C | CCOC(=O)C1=CC2=C(C)C(C)(OC)C=C(C)C2=N1 (centres undefined)
103 | 175 to 177 °C | CC(=O)c1cccc2c1ncn2-c1cccc([N+](=O)[O-])c1
104 | 83.5 to 85 °C | CCOC(=O)C=C(C)NC(=O)OCc1ccc(Cl)c(Cl)c1
